Test results reported in patent publication US4294838A, “Certain heterocyclic sulfoximide derivatives” (priority 1977, dated 1981).
≈ marks a conversion by molar mass, not a printed value. Read-outs that look alike come from different tables or passages of the source.

Columns and labels:
[1] = Acute toxicity in mice (LD50, Litchfield and Wilcoxon); settings: mouse, in vivo, male NRMI mice
Experimental: The acute toxicity has been determined in male mice (NRMI strain) weighing 17 to 21 g. The animals were fasted 24 hours prior to the trial. Water was offered ad libidum. The substances were administered subcutaneously and by using a gastric tube in increasing doses to groups consisting of 6 animals. The animals were observed over a period of 24 hours. The LD50 values were determined according to the method of Litchfield and Wilcoxon (Therap. Grundlagen der experimentellen Arzneimittelforschung--Ther. Fundamentals of Experimental Durg Research--1965--page 82). The findings were compiled as average values in the following tables: […]

[2] = tested on: ileum preparations, barium chloride spasm; experiment: Spasmolytic activity on isolated ileum (Magnus), barium chloride spasm; set-up: species or system Guinea pigs; settings: Cavia porcellus, guinea pig ileum, 37° C, barium chloride 4×10^-4 g/ml; for IC50: read-out: ED50 Barium-Chloride (spasmolytic)
Experimental: (§1) The method described by Magnus was employed [Therap. Grundlagen der Experimentellen Arzneimittelforschung, Wiss. Verlagsgesellschaft, Stuttgart (1965) page 241].
(§2) Guinea pigs of both sexes weighing between 200 and 500 g were killed by cervical blow. After that they were allowed to bleed and then laparotomized. About 15 cm of the distal ileum were then placed into a Krebs-Henseleit-solution at 37° C.
(§3) Ileum preparations of about 1 cm length were fixed in a special vessel containing 25 ml of the Krebs-Henseleit-solution which were percolated by a gas mixture (Carbogen) consisting of 95% oxygen and 5% carbon dioxide. The temperature of the bath was maintained at 37° C. The movements of the ileum preparations were observed by a lampblack-kymograph.
(§4) Every 10 minutes single spasms were caused with solutions of acetylcholine (4×10^-7 g/ml) barium chloride (4×10^-4 g/ml) and histamine (8×10^-6 g/ml) in the Krebs-Henseleit-solution. Five minutes after application the spasms were stopped by rinsing the ileum segments with a Krebs-Henseleit-solution which was free of spasmodics. The tested compounds were added to ther Krebs-Henseleit-solution 2 minutes after causing the spasms.

[3] = tested on: ileum preparations, acetylcholine spasm; experiment: Spasmolytic activity on isolated ileum (Magnus), acetylcholine spasm; set-up: species or system Guinea pigs; settings: Cavia porcellus, guinea pig ileum, 37° C, acetylcholine 4×10^-7 g/ml; for IC50: read-out: ED50 Acetylcholine (spasmolytic)
Experimental: as §1, §2, §3, §4

[4] = tested on: ileum preparations, histamine spasm; experiment: Spasmolytic activity on isolated ileum (Magnus), histamine spasm; set-up: species or system Guinea pigs; settings: Cavia porcellus, guinea pig ileum, 37° C, histamine 8×10^-6 g/ml; for IC50: read-out: ED50 Histamine (spasmolytic)
Experimental: as §1, §2, §3, §4

[5] = tested on: acetylcholine-spasm (bronchospasm); experiment: Bronchospasmolytic activity (Konzett and Roessler), acetylcholine-spasm; format: in vivo, guinea pigs; settings: Cavia porcellus, iv, 2 min; guinea pig, i.v., 2 min before acetylcholine; read-out: ED100 Acetyl-choline (bronchospasmolytic)
Experimental: (§5) The method described by Konzett and Roessler was employed (Arch.exp.Path.Pharmak. 195, 72 (1940).
(§6) Experimental animals were guinea pigs weighing between 280 and 380 g. The animals were kept under urethane narcosis (1.5 g/kg i.m.) and their chests opened. The animals received artificial respiration by means of a respiratory pump. The respiratory pressure was adjusted by a mercury manometer. Every 4 minutes a bronchospasm was caused by intravenous application (vena jugularis) of spasmodics. These were acetylcholine and histamine. Two minutes prior to the injection of a spasmodic, the substances under investigation were administered, i.e. again by intravenous injection. […] With respect to the histamine-spasm they were active in the range of […].

[6] = tested on: histamine-spasm (bronchospasm); experiment: Bronchospasmolytic activity (Konzett and Roessler), histamine-spasm; format: in vivo, guinea pigs; settings: Cavia porcellus, iv, 2 min; guinea pig, i.v., 2 min before histamine
Experimental: as §5, §6

[7] = po, w.i.g. (gastric tube), read-out: Acute Toxicity LD50, w.i.g.
[8] = sc, subcutaneous, read-out: Acute Toxicity LD50, S.C.

Row | Structure (SMILES) | LD50 at 24 h [1, 7] [mg/kg] | LD50 at 24 h [1, 8] [mg/kg] | IC50 [2] [µg/mL] | IC50 [3] [µg/mL] | IC50 [4] [µg/mL] | ED100 [5] [mg/kg] | ED100 [6] [mg/kg] | IC100 ([2]; (ED100)) [µg/mL] | IC100 ([3]; (ED100)) [µg/mL] | IC100 ([4]; (ED100)) [µg/mL]
1 | CCN(CC)CCN=S(=O)(c1ccccc1)c1ccco1 (stereo not drawn) [Example 10, N-(2-Diethylaminoethyl)-S-(2-furyl)-S-phenyl-sulphoximide] | 400 | 150 | – | – | – | – | – | – | – | –
2 | O=S(=NCCN1CCCCC1)(c1cccs1)c1cccs1 [Example 6, N-(2-Piperidinoethyl)-S,S-bis-(2-thienyl)-sulphoximide] | 200 | – | 80 (≈ 235 µM) | 5 (≈ 14.7 µM) | 10 (≈ 29.4 µM) | – | – | – | – | –
3 | CCN(CC)CCN=S(=O)(c1cccs1)c1cccs1 [Example 5, N-(2-Diethylaminoethyl)-S,S-bis-(2-thienyl)-sulphoximide] | 250 | 100 | 40 (≈ 122 µM) | 1 (≈ 3.04 µM) | 10 (≈ 30.4 µM) | 2 | > 8 | – | – | –
4 | O=S(=NCCN1CCCC1)(c1ccccc1)c1cccs1 (stereo not drawn) [Example 3, N-(2-Pyrrolidinoethyl)-S-phenyl-S-(2-thienyl)-sulphoximide] | 150 | – | – | > 1 | 5 (≈ 15.6 µM) | – | – | – | – | –
5 | CCN(CC)CCN=S(=O)(c1ccsc1)c1cccs1 (stereo not drawn) [Example 8, N-(2-Diethylaminoethyl)-S-(2-thienyl)-S-(3-thienyl)-sulphoximide] | < 300 | 250 | 80 (≈ 244 µM) | 0.5 (≈ 1.52 µM) | 2 (≈ 6.09 µM) | 2 | 4 | – | – | –
6 | CCN(CC)CCN=S(=O)(c1ccccc1)c1ccccc1 [Sulfoxifen-Phosphate, N(2-Diethylaminoethyl)-diphenyl-sulfoximin, reference compound] | 180 | 175 | 40 (≈ 126 µM) | 0.1 (≈ 0.316 µM) | 1 (≈ 3.16 µM) | 4 | 4 | 80 | 1 | 10
7 | CN(C)CCCN=S(=O)(c1ccccc1)c1cccs1 (centres unmarked) [Example 2] | < 800 | 600 | > 10 | > 1 | 50 (≈ 162 µM) | – | – | – | – | –
8 | CCN(CC)CCN=S(=O)(c1ccccc1)c1cccnc1 (stereo not drawn) [Example 12, N-(2-Diethylaminoethyl)-S-phenyl-S-(3-pyridyl)-sulphoximide] | 1600 | – | – | – | – | – | – | – | – | –
9 | C[N+](C)(C)CCCN=S(=O)(c1ccccc1)c1cccs1 (stereo not drawn) [Example 2, N-(3-trimethylammoniumpropyl)-S-phenyl-S-(2-thienyl)-sulphoximide iodide] | > 400 | 300 | – | 5 | – | – | – | – | – | –
10 | CCN(CC)CCN=S(=O)(c1ccccc1)c1cccs1 (stereo not drawn) [Example 1, N-(2-Diethylaminoethyl)-S-phenyl-S-(2-thienyl)-sulphoximide] | 200 | 150 | 80 (≈ 248 µM) | 1 (≈ 3.1 µM) | 5 (≈ 15.5 µM) | 1 | > 4 | – | – | –
11 | O=S(=NCCN1CCOCC1)(c1cccs1)c1cccs1 [Example 7, N-(2-Morpholinoethyl)-S,S-bis-(2-thienyl)-sulphoximide] | 1000 | – | – | 4 (≈ 11.7 µM) | 40 (≈ 117 µM) | – | – | – | – | –
12 | CCN(CC)CCN=S(=O)(c1ccsc1)c1ccsc1 [Example 9, N-(2-Diethylaminoethyl)-S,S-bis-(3-thienyl)-sulphoximide] | > 30 | 30 | – | 0.25 (≈ 0.761 µM) | 10 (≈ 30.4 µM) | 4 | > 8 | – | – | –
13 | CCN(CC)CCN=S(=O)(c1ccccc1)c1ccsc1 (stereo not drawn) [Example 4, N-(2-Diethylaminoethyl)-S-phenyl-S-(3-thienyl)-sulphoximide] | 200 | 150 | 40 (≈ 124 µM) | 1 (≈ 3.1 µM) | 10 (≈ 31 µM) | > 2 | > 8 | – | – | –
